What was measured:
Format in all cases: cell-based
[1] = test system: human embryonic stem cells line H1; assay: Real-time PCR of pancreatic related genes in H1 cells differentiated by the Example 1 protocol
Description: FIGS. 1A to 1H show real-time PCR data obtained from samples obtained from cells at stages III-IV, of the protocol outlined in Example 1, for PAX4 (FIG. 1A), NGN3 (FIG. 1B), PDX1 (FIG. 1C), NEUROD (FIG. 1D), NKX6.1 (FIG. 1E), CDX2 (FIG. 1F), and Albumin (FIG. 1G). The y-axis is fold expression over undifferentiated H1 cells.
Cells of the human embryonic stem cells line H1 (p40-p50) were cultured on MATRIGEL®-coated dishes (1:30 dilution) (BD Biosciences; Cat #356231) in MEF-CM (mouse embryonic fibroblast conditioned medium) as colonies and differentiated into pancreatic endocrine precursor cells as follows: • a. Stage I (Definitive Endoderm): Human embryonic stem cells were cultured in RPMI medium supplemented with 2% fatty acid-free BSA (Catalog#68700, Proliant, IA), and 100 ng/ml activin A (R&D Systems, MN) plus 20 ng/ml WNT-3a (Catalog#1324-WN-002, R&D Systems, MN) plus 8 ng/ml of bFGF (Catalog#100-18B, PeproTech, NJ), for one day, followed by treatment with RPMI medium supplemented with 2% BSA and 100 ng/ml activin A plus 8 ng/ml of bFGF for an additional two days, then • b. Stage II (Primitive gut tube): Cells were treated with RPMI+2% fatty acid-free BSA and 50 ng/ml FGF7, for two days, then • c. Stage III (Posterior foregut): Cells were treated with DMEM/High-Glucose supplemented with 1:200 dilution of ITS-X (Invitrogen, CA) and 0.1% BSA (Lipid Rich) (Invitrogen, Ca No. 11021-045), 50 ng/ml FGF7, 0.25 μM SANT-1, 2 μM Retinoic acid (RA) (Sigma, MO), 100 ng/ml of Noggin (R & D Systems, MN), 2.5 μM 4-[4-(4-Fluorophenyl)-1-(3-phenylpropyl)-5-pyridin-4-yl-1H-imidazol-2-yl]but-3-yn-1-ol (a P38 inhibitor disclosed in U.S. Pat. No. 6,521,655), and activin A at 20 ng/ml for five days, then • d. Stage IV (Pancreatic endocrine precursor): Cells were treated with DMEM/High-Glucose supplemented with 1:200 dilution of ITS-X (Invitrogen, CA) and 0.1% BSA (Invitrogen, Ca), 100 ng/ml Noggin, 1 μM ALK5 inhibitor (SD-208, disclosed in Molecular Pharmacology 2007 72:152-161), 500 nM TPB (α-Amyloid Precursor Protein Modulator) (Catalogue #565740, EMD, CA), and 10-100 nM of the CYP26A inhibitor N-{4-[2-Ethyl-1-(1H-1,2,4-triazol-1-yl)butyl]phenyl}-1,3-benzothiazol-2-amine, and 10-100 nM Vitamin A (Catalogue#R7632, Sigma, MO) for four days, or
In some of the cultures, the Stage IV was extended to six days. mRNA was isolated at stages III and IV for real-time PCR analysis of pancreatic related genes.

[2] = test system: human embryonic stem cells line H1; assay: NGN3 immunostaining at stage IV of the Example 1 protocol; conditions: 100 nM of the CYP26A inhibitor vs control
[3] = test system: human embryonic stem cells line H1; assay: Real-time PCR of pancreatic related genes in H1 cells differentiated by the Example 2 protocol
Description: FIGS. 2A to 2E show real-time PCR data obtained from samples obtained from cells at stages III-IV, of the protocol outlined in Example 2, for NGN3 (FIG. 2A), NEUROD (FIG. 2B), CDX2 (FIG. 2C), NKX6.1 (FIG. 2D) and, PDX1 (FIG. 2E). The y-axis is fold expression over undifferentiated H1 cells.
Cells of the human embryonic stem cells line H1 (p40-p52) were seeded as single cells at a density of 100000 cells/cm^2 on MATRIGEL®-coated dishes (1:30 dilution) (BD Biosciences; Cat #356231) in MEF-CM (mouse embryonic fibroblast conditioned media supplemented) with 16 ng/ml of FGF2 (Catalog#100-18B, PeproTech, NJ) and 10 μM of Y27632 (Rock inhibitor, Catalogue #Y0503, Sigma, MO). 72 hours post seeding, cultures were differentiated into definitive endoderm (DE) as follows: • a. Stage I (Definitive Endoderm): Human embryonic stem cells were treated with MCDB-131 (Catalogue#10372-019, Invitrogen, CA) medium supplemented with 2% fatty acid-free BSA (Catalog#68700, Proliant, IA), 0.0025 g/ml sodium bicarbonate (Catalogue #S3187, Sigma, MO), 1× GlutaMax™ (Catalogue #35050-079, Invitrogen, Ca) and 100 ng/ml activin A (R&D Systems, MN) plus 20 ng/ml WNT-3a (Catalog#1324-WN-002, R&D Systems, MN) for one day, followed by treatment with MCDB-131 medium supplemented with 2% BSA, sodium bicarbonate, Glutamax, and 100 ng/ml activin A for an additional three days, then • b. Stage II (Primitive gut tube): Cells were treated with MCDB-131+2% fatty acid-free BSA and 50 ng/ml FGF7 and for three days, then • c. Stage III (Posterior foregut): Cells were treated with MCDB-131/High-Glucose (25 mM glucose) supplemented with 1:200 dilution of ITS-X (Invitrogen, CA), 1× GlutaMax™ (Catalogue #35050-079, Invitrogen, Ca), 0.0025 g/ml sodium bicarbonate (Catalogue #S3187, Sigma, MO), 0.1% BSA (Lipid Rich) (Invitrogen, Ca No. 11021-045), 50 ng/ml FGF7, 0.25 μM SANT-1, 2 μM Retinoic acid (RA) (Sigma, MO), 2.5 μM 4-[4-(4-Fluorophenyl)-1-(3-phenylpropyl)-5-pyridin-4-yl-1H-imidazol-2-yl]but-3-yn-1-ol (a p38 inhibitor, disclosed in U.S. Pat. No. 6,521,655), 100 nM LDN-193189 (BMP receptor inhibitor, Catalogue #04-0019, Stemgent, CA), 500 nM of the CYP26A inhibitor N-{4-[2-Ethyl-1-(1H-1,2,4-triazol-1-yl)butyl]phenyl}-1,3-benzothiazol-2-amine, and activin A at 20 ng/ml for four days, then • d. Stage IV (Pancreatic endocrine precursor): Cells were treated MCDB-131/High-Glucose (25 mM glucose) supplemented with 1:200 dilution of ITS-X (Invitrogen, CA) and 0.1% BSA (Invitrogen, Ca), 1× GlutaMax™ (Catalogue #35050-079, Invitrogen, Ca), 0.0025 g/ml sodium bicarbonate (Catalogue #S3187, Sigma, MO), 1 μM ALK5 inhibitor (SD-208, disclosed in Molecular Pharmacology 2007 72:152-161), 500 nM PDBu (PKC activator) (Catalogue #P1269, Sigma, MO), 100 nM LDN-193189 (BMP receptor inhibitor, Catalogue #04-0019, Stemgent, CA), 0.25 μM SANT-1 (#S4572, Sigma, MO), and 500 nM of the CYP26A inhibitor N-{4-[2-Ethyl-1-(1H-1,2,4-triazol-1-yl)butyl]phenyl}-1,3-benzothiazol-2-amine for seven days, or • e. Stage IV (Pancreatic endocrine precursor): Cells were treated MCDB-131/High-Glucose (25 mM glucose) supplemented with 1:200 dilution of ITS-X (Invitrogen, CA) and 0.1% BSA (Invitrogen, Ca), 1× GlutaMax™ (Catalogue #35050-079, Invitrogen, Ca), 0.0025 g/ml sodium bicarbonate (Catalogue #S3187, Sigma, MO), 1 μM ALK5 inhibitor (SD-208, disclosed in Molecular Pharmacology 2007 72:152-161), 500 nM PDBu (PKC activator) (Catalogue #P1269, Sigma, MO), 100 nM LDN-193189 (BMP receptor inhibitor, Catalogue #04-0019, Stemgent, CA), 0.25 μM SANT-1 (#S4572, Sigma, MO) for seven days.
mRNA was isolated at stages III and IV for real-time PCR analysis of pancreatic related genes. Similar to the results observed in Example 1 above, addition of CYP26A inhibitor to stage IV enhanced expression of pancreatic endocrine precursor markers, such as NGN3 and NeuroD. (See FIG. 2A to 2E).

[4] = added at stage IV, 10-100 nM, mRNA, real-time PCR, dose dependent
[5] = added at stage IV, mRNA, real-time PCR
[6] = 500 nM added to both stages III and IV
[7] = 500 nM added to stage III in the presence of retinoic acid

| Compound | expression of pancreatic endoderm or endocrine precursor markers ([1]; vitamin A 10-100 nM added along with the CYP26A inhibitor at stage IV) | expression of endocrine precursor marker NGN3 [1, 4] | expression of endocrine precursor marker NeuroD [1, 4] | expression of endocrine precursor marker Pax4 [1, 4] | expression of pancreatic endoderm marker NKX6.1 [1, 4] | expression of CDX2 (an intestinal marker) [1, 5] | expression of albumin (a liver marker) [1, 5] | expression of NGN3 by immunostaining [2] | expression of NGN3 [3, 6] | expression of NeuroD [3, 6] | expression of CDX2 [3, 7] | expression of NKX6.1 [3, 7] | expression of PDX-1 [3, 7] | expression of pancreatic endocrine precursor marker NGN3 ([3]; 500 nM added to stage IV) | expression of pancreatic endocrine precursor marker NeuroD ([3]; 500 nM added to stage IV) |
| --- | --- | --- | --- | --- | --- | --- | --- | --- | --- | --- | --- | --- | --- | --- | --- |
| Vitamin A | did not significantly modify |  |  |  |  |  |  |  |  |  |  |  |  |  |  |
| CCC(CC)[C@H](c1ccc(Nc2nc3ccccc3s2)cc1)n1cncn1 (stereo in doubt) [CYP26A inhibitor, N-{4-[2-Ethyl-1-(1H-1,2,4-triazol-1-yl)butyl]phenyl}-1,3-benzothiazol-2-amine] |  | significantly boosted | significantly boosted | significantly boosted | significantly boosted | decreased | decreased | significant boost | further enhanced | further enhanced | enhancing | significantly down regulated | significantly down regulated | enhanced | enhanced |

From patent publication US9458430B2, “Differentiation of pluripotent stem cells” (Janssen Biotech, Inc., priority 2010, dated 2016)
